From ChEMBL document CHEMBL5634141 (Eur J Med Chem, 2023)
Calls of active or inactive are those of the source. The rule behind the calls is not given here.

How the values were obtained:
NCI-H358 [1] = test: Antiproliferative activity against human NCI-H358 cells expressing KRAS G12C mutant assessed as inhibition of cell growth incubated for 72 hrs by CCK-8 assay; format: functional, cell-based; settings: NCI-H358, 72 h
MIA PaCa-2 [2] = test: Antiproliferative activity against human MIA PaCa-2 cells expressing KRAS G12C mutant assessed as inhibition of cell growth incubated for 72 hrs by CCK-8 assay; format: functional, cell-based; settings: MIA PaCa-2, 72 h
[3] = system: von Hippel-Lindau disease tumor suppressor/GTPase KRas (Homo sapiens), P01116+P40337 [G12C]; test: (§1) PROTAC activity at VHL/KRAS G12C mutant in human NCI-H358 cells assessed as induction of protein degradation incubated for 72 hrs by Western blot analysis; format: cell-based
[4] = target: von Hippel-Lindau disease tumor suppressor/GTPase KRas (Homo sapiens, UniProt P01116+P40337, G12C); test: as §1; format: cell-based
von Hippel-Lindau disease tumor suppressor/GTPase KRas, sequence (P01116 whole entry G12C, stated change not applied): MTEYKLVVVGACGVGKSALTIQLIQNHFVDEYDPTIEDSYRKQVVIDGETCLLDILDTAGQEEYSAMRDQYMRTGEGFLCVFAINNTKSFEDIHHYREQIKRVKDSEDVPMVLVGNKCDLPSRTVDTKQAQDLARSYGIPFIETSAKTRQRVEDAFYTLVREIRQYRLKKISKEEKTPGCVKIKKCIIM
von Hippel-Lindau disease tumor suppressor/GTPase KRas, sequence (P40337 whole entry partner, stated change not applied): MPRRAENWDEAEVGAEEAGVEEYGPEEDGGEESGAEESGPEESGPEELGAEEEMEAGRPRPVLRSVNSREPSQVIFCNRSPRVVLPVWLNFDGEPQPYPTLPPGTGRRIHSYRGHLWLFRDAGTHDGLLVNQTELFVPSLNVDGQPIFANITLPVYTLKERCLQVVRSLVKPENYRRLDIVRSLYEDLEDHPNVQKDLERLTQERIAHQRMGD

[5] = system: von Hippel-Lindau disease tumor suppressor/GTPase KRas (Homo sapiens), P01116+P40337 [G12C]; test: PROTAC activity at VHL/KRAS G12C mutant in human MIA PaCa-2 cells assessed as induction of protein degradation by measuring maximal efficacy by Western blotting analysis relative to control; format: cell-based
[6] = system: von Hippel-Lindau disease tumor suppressor/GTPase KRas (Homo sapiens), P01116+P40337 [G12C]; test: PROTAC activity at VHL/KRAS G12C mutant in human NCI-H358 cells assessed as induction of protein degradation at 100 nM preincubated with MG132 for 6 hrs followed by compound addition and measured after 48 hrs by Western blot analysis; format: cell-based
[7] = system: von Hippel-Lindau disease tumor suppressor/GTPase KRas (Homo sapiens), P01116+P40337 [G12C]; test: PROTAC activity at VHL/KRAS G12C mutant in human NCI-H358 cells assessed as induction of protein degradation at 100 nM preincubated with MLN4924 for 6 hrs followed by compound addition and measured after 48 hrs by Western blotting analysis; format: cell-based
[8] = system: von Hippel-Lindau disease tumor suppressor/GTPase KRas (Homo sapiens), P01116+P40337 [G12C]; test: PROTAC activity at VHL/KRAS G12C mutant in human MIA PaCa-2 cells assessed as induction of protein degradation in presence of MG132 by Western blot analysis; format: cell-based
NCI-H358 [9] = test: Induction of apoptosis in human NCI-H358 cells assessed as viable cells at 30 nM incubated for 48 hrs by Annexin V-FITC staining based flow cytometry analysis (reference value: 91.6 %); format: functional; settings: read-out: Activity
NCI-H358 [10] = test: Induction of apoptosis in human NCI-H358 cells assessed as early apoptotic cells at 100 nM incubated for 48 hrs by Annexin V-FITC staining based flow cytometry analysis (reference value: 1.60 %); format: functional
MIA PaCa-2 [11] = test: Induction of apoptosis in human MIA PaCa-2 cells assessed as necrotic cells at 30 nM incubated for 48 hrs by Annexin V-FITC staining based flow cytometry analysis (reference value: 1.25 %); format: functional
MIA PaCa-2 [12] = test: Induction of apoptosis in human MIA PaCa-2 cells assessed as early apoptotic cells at 300 nM incubated for 48 hrs by Annexin V-FITC staining based flow cytometry analysis (reference value: 1.55 %); format: functional
MIA PaCa-2 [13] = test: Induction of apoptosis in human MIA PaCa-2 cells assessed as necrotic cells at 300 nM incubated for 48 hrs by Annexin V-FITC staining based flow cytometry analysis (reference value: 1.25 %); format: functional
MIA PaCa-2 [14] = test: Antitumor activity against human MIA PaCa-2 cells xenografted in BALB/c nude mouse assessed as tumor growth inhibition at 30 mg/kg, ip measured after 16 days relative to control; format: functional; settings: MIA PaCa-2, 384 h, time 16 day, read-out: TGI
Mus musculus = test: In vivo PROTAC activity at VHL/KRAS G12C mutant in BALB/c nude mouse xenografted with human MIA PaCa-2 cells assessed as decrease in KRAS level at 10 to 30 mg/kg, ip administered for 16 days by Western blot analysis; format: functional, organism-based; settings: dose 10-30 mg/kg, time 16.0 day
[15] = Cmax in ICR mouse at 2 mg/kg, iv measured after 24 hrs by LC-MS/MS analysis; format: ADME, organism-based; settings: in vivo
[16] = AUC (0 to t) in ICR mouse at 2 mg/kg, iv measured after 24 hrs by LC-MS/MS analysis; format: ADME, organism-based; settings: in vivo
[17] = Clearance in ICR mouse at 2 mg/kg, iv measured after 24 hrs by LC-MS/MS analysis; format: ADME, organism-based; settings: in vivo
[18] = Half life in ICR mouse at 30 mg/kg, ip measured after 24 hrs by LC-MS/MS analysis; format: ADME, organism-based; settings: in vivo
[19] = Tmax in ICR mouse at 30 mg/kg, ip measured after 24 hrs by LC-MS/MS analysis; format: ADME, organism-based; settings: in vivo
[20] = system: von Hippel-Lindau disease tumor suppressor/GTPase KRas (Homo sapiens), P01116+P40337 [G12C]; test: PROTAC activity at VHL/KRAS G12C mutant in human MIA PaCa-2 cells assessed as inhibition of ERK phosphorylation at 100 nM incubated for 1 to 8 days by Western blotting analysis; format: cell-based; settings: time 1-8 day
NCI-H358 [21] = test: Antiproliferative activity against human NCI-H358 cells expressing KRAS G12C mutant assessed as relative cell viability at 30 nM incubated for 72 hrs in presence of crizotinib by CCK-8 assay; format: functional; settings: read-out: Activity
NCI-H358 [22] = test: Antiproliferative activity against human NCI-H358 cells expressing KRAS G12C mutant assessed as relative cell viability at 30 nM incubated for 72 hrs in presence of selumetinib by CCK-8 assay; format: functional; settings: read-out: Activity
NCI-H23 = test: Antiproliferative activity against human NCI-H23 cells expressing KRAS G12C mutant assessed as relative cell viability at 30 nM incubated for 72 hrs in presence of selumetinib by CCK-8 assay; format: functional; settings: read-out: Activity
MIA PaCa-2 [23] = test: Antiproliferative activity against human MIA PaCa-2 cells expressing KRAS G12C mutant assessed as relative cell viability at 30 nM incubated for 72 hrs in presence of daclolisib by CCK-8 assay; format: functional; settings: read-out: Activity
NCI-H358 [24] = test: Synergistic antiproliferative activity against human NCI-H358 cells expressing KRAS G12C mutant assessed as combination index at 30 nM incubated for 72 hrs in presence of infigratinib by CCK-8 assay; format: functional
NCI-H358 [25] = test: Synergistic antiproliferative activity against human NCI-H358 cells expressing KRAS G12C mutant assessed as combination index at 30 nM incubated for 72 hrs in presence of MK-2206 by CCK-8 assay; format: functional
NCI-H358 [26] = test: Inhibition of colony formation in human NCI-H358 cells expressing KRAS G12C mutant assessed as reduction in cell number at 30 nM incubated for 14 days in presence of AZD4573 by crystal violet staining based analysis; format: functional; settings: time 14.0 day
MIA PaCa-2 [27] = test: Inhibition of colony formation in human MIA PaCa-2 cells expressing KRAS G12C mutant assessed as reduction in cell number at 30 nM incubated for 14 days in presence of AZD4573 by crystal violet staining based analysis; format: functional; settings: time 14.0 day
NCI-H358 [28] = test: Inhibition of colony formation in human NCI-H358 cells expressing KRAS G12C mutant assessed as reduction in cell number at 30 nM incubated for 14 days in presence of linsitinib by crystal violet staining based analysis; format: functional; settings: time 14.0 day
[29] = Downregulation of KRAS G12C mutant expression in human NCI-H358 cells assessed as log2 of fold change at 200 nM incubated for 48 hrs by MS-based proteomic analysis; format: functional
[30] = Toxicity in ICR mouse assessed as side effects at 30 mg/kg, ip measured after 24 hrs; format: organism-based; settings: in vivo

**Q.** What does the source list for `C=CC(=O)N1CCN(c2nc(=O)n(-c3c(C)ccnc3C(C)C)c3nc(-c4c(F)cccc4OCC4CCN(CCCC(=O)N[C@H](C(=O)N5C[C@H](O)C[C@H]5C(=O)NCc5ccc(-c6scnc6C)cc5)C(C)(C)C)CC4)c(F)cc23)[C@@H](C)C1`?
**A.** IC50 (NCI-H358 [1]): 91 nM; IC50 (MIA PaCa-2 [2]): 45 nM; Activity [3]: Dose-Dependent Effect; DC50 [4]: 67 nM; Emax [5]: > 95%; Activity [6]: inactive; Activity [7]: inactive; Activity [8]: inactive; viability at 0.03 µM (NCI-H358 [9]): 89.4%; Activity (NCI-H358 [10]): 2.94%; Activity (MIA PaCa-2 [11]): 1.37%; Activity (MIA PaCa-2 [12]): 9.58%; Activity (MIA PaCa-2 [13]): 4.08%; inhibition in vivo at 30 mg/kg (MIA PaCa-2 [14]): 100%; Activity (Mus musculus): Active; Cmax [15]: 1170 ng/mL; AUC(0-t) at 24 h [16]: 399 ng·h/mL; clearance [17]: 84.2 mL/min/kg; half-life [18]: 3.87 h; Tmax [19]: 1.17 h; Activity [20]: Active; viability at 0.03 µM (NCI-H358 [21]): 0.43%; viability at 0.03 µM (NCI-H358 [22]): 0.31%; viability at 0.03 µM (NCI-H23): 0.24%; viability at 0.03 µM (MIA PaCa-2 [23]): 0.17%; CI (NCI-H358 [24]): <1; CI (NCI-H358 [25]): <1; inhibition (NCI-H358 [26]): Active; inhibition (MIA PaCa-2 [27]): Active; inhibition (NCI-H358 [28]): Active; log2FC [29]: >1; Activity [30]: Non-Toxic
